In this experiment the target is hen egg-white lysozyme (Gallus gallus, UniProt P00698). Description: 1H–[…] HMQC NMR of caged lysozyme with cage-tethered GlcNAc. It is filed as biochemical.

Consider one molecule from article PMC12076163 (Chemical Science, 2025).

For orientation: Kd means a measure of binding affinity in units of concentration. Higher therefore signals a looser complex. Molecule `CC(=O)N[C@H]1C(O)O[C@H](CO)[C@@H](O)[C@@H]1O` (stereo partly shown) [GlcNAc, N-acetylglucosamine] yielded an equilibrium dissociation constant (Kd) of 6 µM.
